{"source": "patent US20220125765A1", "about": "“PHARMACEUTICAL COMBINATIONS COMPRISING MEBENDAZOLE AND A STRONG OR MODERATE CYP1A2 INHIBITOR” (ZEPHAPHARM LTD, priority 2019, published 2022)", "assay_type_in_all_cases": "cell-based", "key": {"OVXF 899L": {"system": "OVXF 899L", "assay": "2D monolayer CellTiter-Blue viability, ovarian cancer OVXF 899L (P-gp expressing, multidrug resistant)", "conditions": "OVXF 899, 72 h; for pIC50: OVXF 899L", "method": "(§1) Mebendazole was tested in vitro across a panel of 12 tumor cell lines of ovarian and renal cancer by using a 2D monolayer assay. […] OVXF 899L and RXF 486L are P-gp expressing, multidrug resistant cell lines.\n(§2) Anti-tumor activity is expressed as absolute and relative IC50/70 values, calculated by 4-parameter non-linear curve fit."}, "A2780": {"system": "A2780", "assay": "2D monolayer CellTiter-Blue viability, ovarian cancer A2780", "conditions": "for Test/Control (%) at Drug Concentration: 72 h; for pIC50: Homo sapiens", "method": "as §1, §2"}, "SK-OV-3": {"system": "SK-OV-3", "assay": "2D monolayer CellTiter-Blue viability, ovarian cancer SK-OV-3", "conditions": "for pIC50: Homo sapiens; for Test/Control (%) at Drug Concentration: 72 h", "method": "as §1, §2"}, "RXF 1781L": {"system": "RXF 1781L", "assay": "2D monolayer CellTiter-Blue viability, renal cancer RXF 1781L", "conditions": "for Test/Control (%) at Drug Concentration: 72 h; for pIC50: RXF 1781L", "method": "as §1, §2"}}, "note": "pIC50: −log10 of the molar value. Like-named read-outs stand apart in the source and are kept apart here.", "data": [{"smiles": "COC(=O)Nc1nc2ccc(C(=O)c3ccccc3)cc2[nH]1", "note": "[Mebendazole, methyl N-(6-benzoyl-1H-benzimidazol-2-yl)carbamate]", "values": [{"measurement": "Bot. (%)", "setting": "OVXF 899L; curve fit", "result": 57, "unit": "%"}, {"measurement": "Top (%)", "setting": "OVXF 899L; curve fit", "result": 95, "unit": "%"}, {"measurement": "pIC50", "setting": "OVXF 899L; read-out: Abs. IC50", "result": "< 5.49"}, {"measurement": "pIC50", "setting": "OVXF 899L; read-out: Rel. IC50", "result": 6.40}, {"measurement": "Test/Control (%) at Drug Concentration", "setting": "A2780; A2780, 1.0E+00 μM", "result": 26, "unit": "%"}, {"measurement": "Test/Control (%) at Drug Concentration", "setting": "A2780; A2780, 1.0E−01 μM", "result": 91, "unit": "%"}, {"measurement": "Test/Control (%) at Drug Concentration", "setting": "A2780; A2780, 1.0E−02 μM", "result": 96, "unit": "%"}, {"measurement": "Test/Control (%) at Drug Concentration", "setting": "A2780; A2780, 1.0E−03 μM", "result": 95, "unit": "%"}, {"measurement": "Test/Control (%) at Drug Concentration", "setting": "A2780; A2780, 1.0E−04 μM", "result": 115, "unit": "%"}, {"measurement": "Test/Control (%) at Drug Concentration", "setting": "A2780; A2780, 3.2E+00 μM", "result": 13, "unit": "%"}, {"measurement": "Test/Control (%) at Drug Concentration", "setting": "A2780; A2780, 3.2E−01 μM", "result": 30, "unit": "%"}, {"measurement": "Test/Control (%) at Drug Concentration", "setting": "A2780; A2780, 3.2E−02 μM", "result": 97, "unit": "%"}, {"measurement": "Test/Control (%) at Drug Concentration", "setting": "A2780; A2780, 3.2E−03 μM", "result": 99, "unit": "%"}, {"measurement": "Test/Control (%) at Drug Concentration", "setting": "A2780; A2780, 3.2E−04 μM", "result": 109, "unit": "%"}, {"measurement": "Abs. IC70", "setting": "A2780; A2780, 72 h", "result": 323, "unit": "nM"}, {"measurement": "Rel. IC70", "setting": "A2780; A2780, 72 h", "result": 231, "unit": "nM"}, {"measurement": "Bot. (%)", "setting": "A2780; A2780, 72 h, curve fit", "result": 19, "unit": "%"}, {"measurement": "Top (%)", "setting": "A2780; A2780, 72 h, curve fit", "result": 102, "unit": "%"}, {"measurement": "pIC50", "setting": "A2780; A2780, 72 h, read-out: Abs. IC50", "result": 6.68}, {"measurement": "pIC50", "setting": "A2780; A2780, 72 h, read-out: Rel. IC50", "result": 6.75}, {"measurement": "pIC50", "setting": "SK-OV-3; SK-OV-3, 72 h, read-out: Abs. IC50", "result": 5.92}, {"measurement": "pIC50", "setting": "SK-OV-3; SK-OV-3, 72 h, read-out: Rel. IC50", "result": 6.32}, {"measurement": "Test/Control (%) at Drug Concentration", "setting": "SK-OV-3; SK-OV-3, 1.0E+00 μM", "result": 52, "unit": "%"}, {"measurement": "Test/Control (%) at Drug Concentration", "setting": "SK-OV-3; SK-OV-3, 1.0E−01 μM", "result": 99, "unit": "%"}, {"measurement": "Test/Control (%) at Drug Concentration", "setting": "SK-OV-3; SK-OV-3, 1.0E−02 μM", "result": 98, "unit": "%"}, {"measurement": "Test/Control (%) at Drug Concentration", "setting": "SK-OV-3; SK-OV-3, 1.0E−03 μM", "result": 100, "unit": "%"}, {"measurement": "Test/Control (%) at Drug Concentration", "setting": "SK-OV-3; SK-OV-3, 1.0E−04 μM", "result": 94, "unit": "%"}, {"measurement": "Test/Control (%) at Drug Concentration", "setting": "SK-OV-3; SK-OV-3, 3.2E+00 μM", "result": 45, "unit": "%"}, {"measurement": "Test/Control (%) at Drug Concentration", "setting": "SK-OV-3; SK-OV-3, 3.2E−01 μM", "result": 84, "unit": "%"}, {"measurement": "Test/Control (%) at Drug Concentration", "setting": "SK-OV-3; SK-OV-3, 3.2E−02 μM", "result": 102, "unit": "%"}, {"measurement": "Test/Control (%) at Drug Concentration", "setting": "SK-OV-3; SK-OV-3, 3.2E−03 μM", "result": 101, "unit": "%"}, {"measurement": "Test/Control (%) at Drug Concentration", "setting": "SK-OV-3; SK-OV-3, 3.2E−04 μM", "result": 104, "unit": "%"}, {"measurement": "Abs. IC70", "setting": "SK-OV-3; SK-OV-3, 72 h", "result": ">3200", "unit": "nM"}, {"measurement": "Rel. IC70", "setting": "SK-OV-3; SK-OV-3, 72 h", "result": 679, "unit": "nM"}, {"measurement": "Bot. (%)", "setting": "SK-OV-3; SK-OV-3, 72 h, curve fit", "result": 44, "unit": "%"}, {"measurement": "Top (%)", "setting": "SK-OV-3; SK-OV-3, 72 h, curve fit", "result": 100, "unit": "%"}, {"measurement": "Test/Control (%) at Drug Concentration", "setting": "RXF 1781L; RXF 1781, 1.0E+00 μM", "result": 25, "unit": "%"}, {"measurement": "Test/Control (%) at Drug Concentration", "setting": "RXF 1781L; RXF 1781, 1.0E−01 μM", "result": 91, "unit": "%"}, {"measurement": "Test/Control (%) at Drug Concentration", "setting": "RXF 1781L; RXF 1781, 1.0E−02 μM", "result": 92, "unit": "%"}, {"measurement": "Test/Control (%) at Drug Concentration", "setting": "RXF 1781L; RXF 1781, 1.0E−03 μM", "result": 101, "unit": "%"}, {"measurement": "Test/Control (%) at Drug Concentration", "setting": "RXF 1781L; RXF 1781, 1.0E−04 μM", "result": 98, "unit": "%"}, {"measurement": "Test/Control (%) at Drug Concentration", "setting": "RXF 1781L; RXF 1781, 3.2E+00 μM", "result": 32, "unit": "%"}, {"measurement": "Test/Control (%) at Drug Concentration", "setting": "RXF 1781L; RXF 1781, 3.2E−01 μM", "result": 61, "unit": "%"}, {"measurement": "Test/Control (%) at Drug Concentration", "setting": "RXF 1781L; RXF 1781, 3.2E−02 μM", "result": 95, "unit": "%"}, {"measurement": "Test/Control (%) at Drug Concentration", "setting": "RXF 1781L; RXF 1781, 3.2E−03 μM", "result": 95, "unit": "%"}, {"measurement": "Test/Control (%) at Drug Concentration", "setting": "RXF 1781L; RXF 1781, 3.2E−04 μM", "result": 100, "unit": "%"}, {"measurement": "Abs. IC70", "setting": "RXF 1781L; RXF 1781, 72 h", "result": 978, "unit": "nM"}, {"measurement": "Rel. IC70", "setting": "RXF 1781L; RXF 1781, 72 h", "result": 410, "unit": "nM"}, {"measurement": "Bot. (%)", "setting": "RXF 1781L; RXF 1781, 72 h, curve fit", "result": 28, "unit": "%"}, {"measurement": "Top (%)", "setting": "RXF 1781L; RXF 1781, 72 h, curve fit", "result": 96, "unit": "%"}, {"measurement": "pIC50", "setting": "RXF 1781L; RXF 1781, 72 h, read-out: Abs. IC50", "result": 6.40}, {"measurement": "pIC50", "setting": "RXF 1781L; RXF 1781, 72 h, read-out: Rel. IC50", "result": 6.51}]}]}
